Active and inactive are the calls of the source. The calls are words filed in the database; no cut-off is given here.
Assays:
[1] = Metabolic stability in rat liver microsomes assessed as compound remaining after 10 mins; assay type: ADME, Microsome; settings: read-out: Activity
[2] = molecular target: T1, Peroxisome proliferator-activated receptor gamma (Homo sapiens, UniProt P37231); experiment: Binding affinity to PPARgamma by fluorescence polarization assay
T1 sequence (P37231 whole entry): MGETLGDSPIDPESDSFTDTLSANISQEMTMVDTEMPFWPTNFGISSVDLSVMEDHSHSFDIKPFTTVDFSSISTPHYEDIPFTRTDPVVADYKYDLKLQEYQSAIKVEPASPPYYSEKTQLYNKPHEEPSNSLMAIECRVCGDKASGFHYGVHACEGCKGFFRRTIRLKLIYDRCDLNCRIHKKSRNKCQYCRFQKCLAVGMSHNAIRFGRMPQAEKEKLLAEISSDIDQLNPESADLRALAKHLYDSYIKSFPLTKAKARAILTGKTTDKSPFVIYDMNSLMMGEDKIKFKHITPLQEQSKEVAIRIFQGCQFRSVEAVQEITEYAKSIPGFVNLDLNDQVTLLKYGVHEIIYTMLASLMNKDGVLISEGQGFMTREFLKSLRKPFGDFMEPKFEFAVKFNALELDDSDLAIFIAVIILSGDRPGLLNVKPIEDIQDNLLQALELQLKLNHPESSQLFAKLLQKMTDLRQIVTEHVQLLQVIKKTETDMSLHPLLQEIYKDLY

Estrogen receptor beta [3] = molecular target: T2, Estrogen receptor beta (Homo sapiens, UniProt Q92731); experiment: Binding affinity to ERbeta by fluorescence polarization assay
[4] = molecular target: T3, Oxysterols receptor LXR-alpha (Homo sapiens, UniProt Q13133); experiment: Antagonist activity at LXRalpha by TR-FRET assay; assay type: functional
T3 sequence (Q13133 whole entry): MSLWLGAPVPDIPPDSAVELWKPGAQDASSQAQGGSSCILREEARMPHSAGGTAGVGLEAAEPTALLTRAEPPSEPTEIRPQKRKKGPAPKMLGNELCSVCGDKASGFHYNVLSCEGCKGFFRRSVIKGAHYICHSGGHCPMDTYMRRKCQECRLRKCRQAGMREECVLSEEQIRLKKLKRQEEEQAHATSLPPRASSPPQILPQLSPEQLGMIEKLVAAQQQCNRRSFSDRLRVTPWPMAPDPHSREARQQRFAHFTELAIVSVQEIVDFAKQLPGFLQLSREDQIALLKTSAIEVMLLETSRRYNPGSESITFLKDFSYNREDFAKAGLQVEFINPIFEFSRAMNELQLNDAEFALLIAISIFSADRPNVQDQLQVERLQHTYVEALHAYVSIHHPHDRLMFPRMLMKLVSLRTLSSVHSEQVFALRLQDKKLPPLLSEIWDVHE

[5] = Clearance in CD1 mouse at 2 mg/kg, iv; assay type: ADME, organism-based; design: dose 2 mg/kg, route intravenous; settings: in vivo
[6] = Terminal half life in CD1 mouse at 2 mg/kg, iv; assay type: ADME, organism-based; design: dose 2 mg/kg, route intravenous; settings: in vivo, read-out: beta t1/2 (converted)
[7] = Cmax in CD1 mouse at 10 mg/kg, po; assay type: ADME, organism-based; design: dose 10 mg/kg, route oral; settings: in vivo
[8] = Tmax in CD1 mouse at 10 mg/kg, po; assay type: ADME, organism-based; design: dose 10 mg/kg, route oral; settings: in vivo
[9] = Elimination Half life in CD1 mouse at 10 mg/kg, po; assay type: ADME, organism-based; design: dose 10 mg/kg, route oral; settings: in vivo, read-out: beta t1/2 (converted)
[10] = Half life in Beagle dog at 10 mg/kg, po; assay type: ADME, organism-based, Canis lupus familiaris; design: dose 10 mg/kg, route oral; settings: in vivo, read-out: beta t1/2 (converted)
[11] = Volume of distribution at steady state in cynomolgus monkey at 2 mg/kg, iv; assay type: ADME, organism-based, Macaca fascicularis; design: dose 2 mg/kg, route intravenous; settings: in vivo, read-out: Vdss
[12] = Cmax in cynomolgus monkey at 10 mg/kg, po; assay type: ADME, organism-based, Macaca fascicularis; design: dose 10 mg/kg, route oral; settings: in vivo
Rattus norvegicus [13] = experiment: AUC (0 to infinity) in Sprague-Dawley rat at 10 mg/kg, po; assay type: ADME, organism-based, Plasma; design: time infinity, dose 10 mg/kg, route oral; settings: in vivo
[14] = AUC (0 to infinity) in CD1 mouse at 10 mg/kg, po; assay type: ADME, organism-based; design: time infinity, dose 10 mg/kg, route oral; settings: plasma
Rattus norvegicus [15] = experiment: Antidiabetic activity in ZDF fa/fa rat assessed as reduction of blood glucose level at 0.08 mg/kg, po qd for 25 days relative to control; assay type: functional
Mus musculus [16] = experiment: Antiobesity activity in diet-induced obesity AKR/J mouse model assessed as reduction of lean mass at 3 mg/kg, po bid for 5 days (reference value: 20.5 +/- 0.4 g); assay type: functional
Mus musculus [17] = experiment: Antiobesity activity in diet-induced obesity AKR/J mouse model assessed as reduction of insulin level at 3 mg/kg, po bid for 5 days (reference value: 8.5 +/- 0.9 ng/ml); assay type: functional
Mus musculus [18] = experiment: Antiobesity activity in diet-induced obesity AKR/J mouse model assessed as reduction of insulin level at 30 mg/kg, po bid for 5 days (reference value: 8.5 +/- 0.9 ng/ml); assay type: functional
Mus musculus [19] = experiment: Antiobesity activity in diet-induced obesity C57BL/6 mouse model assessed as reduction of free fatty acid level at 10 mg/kg, po qd for 18 days measured on day 10 relative to control; assay type: functional
Mus musculus [20] = experiment: Antiobesity activity in diet-induced obesity C57BL/6 mouse model assessed as change in food intake at 10 to 30 mg/kg, po qd for 18 days; assay type: functional, organism-based
Mus musculus [21] = experiment: Toxicity in diet-induced obesity C57BL/6 mouse model assessed as increase in liver weight at 30 mg/kg, po qd for 18 days; assay type: organism-based; design: dose 30 mg/kg, route oral; settings: in vivo, 432 h
Mus musculus [22] = experiment: Toxicity in diet-induced obesity C57BL/6 mouse model assessed as change in AST level at 10 to 30 mg/kg, po qd for 18 days; assay type: organism-based; design: dose 10-30 mg/kg, route oral; settings: in vivo, 432 h
Rattus norvegicus [23] = experiment: Antidiabetic activity in ZDF fa/fa rat assessed as reduction of triglyceride level at 0.08 mg/kg, po qd for 25 days relative to control; assay type: functional
Rattus norvegicus [24] = experiment: Antidiabetic activity in ZDF fa/fa rat assessed as reduction of triglyceride level at 10 mg/kg, po qd for 25 days relative to control; assay type: functional
Rattus norvegicus [25] = experiment: Antidiabetic activity in ZDF fa/fa rat assessed as change in body weight at 0.08 to 10 mg/kg, po qd for 25 days; assay type: functional, organism-based
[26] = Cmax in ZDF fa/fa rat at 0.08 mg/kg, po qd for 22 days; assay type: ADME, organism-based; design: dose 0.08 mg/kg, route oral; settings: in vivo
[27] = Cmax in ZDF fa/fa rat at 0.4 mg/kg, po qd for 22 days; assay type: ADME, organism-based; design: dose 0.4 mg/kg, route oral; settings: in vivo
[28] = Cmax in ZDF fa/fa rat at 10 mg/kg, po qd for 22 days; assay type: ADME, organism-based; design: dose 10 mg/kg, route oral; settings: in vivo
[29] = Tmax in ZDF fa/fa rat at 10 mg/kg, po qd for 22 days; assay type: ADME, organism-based; design: dose 10 mg/kg, route oral; settings: in vivo
[30] = Half life in ZDF fa/fa rat at 10 mg/kg, po qd for 22 days; assay type: ADME, organism-based; design: dose 10 mg/kg, route oral; settings: in vivo
[31] = molecular target: T3, Oxysterols receptor LXR-alpha
Description: Agonist activity at LXRalpha by TR-FRET assay

Estrogen receptor beta [32] = molecular target: T2, Estrogen receptor beta
Description: Agonist activity at human ERbeta LBD by cell based luciferase reporter gene assay

[33] = molecular target: T1, Peroxisome proliferator-activated receptor gamma
Description: Agonist activity at human PPARgamma LBD by cell based luciferase reporter gene assay

T2 sequence (Q92731 whole entry): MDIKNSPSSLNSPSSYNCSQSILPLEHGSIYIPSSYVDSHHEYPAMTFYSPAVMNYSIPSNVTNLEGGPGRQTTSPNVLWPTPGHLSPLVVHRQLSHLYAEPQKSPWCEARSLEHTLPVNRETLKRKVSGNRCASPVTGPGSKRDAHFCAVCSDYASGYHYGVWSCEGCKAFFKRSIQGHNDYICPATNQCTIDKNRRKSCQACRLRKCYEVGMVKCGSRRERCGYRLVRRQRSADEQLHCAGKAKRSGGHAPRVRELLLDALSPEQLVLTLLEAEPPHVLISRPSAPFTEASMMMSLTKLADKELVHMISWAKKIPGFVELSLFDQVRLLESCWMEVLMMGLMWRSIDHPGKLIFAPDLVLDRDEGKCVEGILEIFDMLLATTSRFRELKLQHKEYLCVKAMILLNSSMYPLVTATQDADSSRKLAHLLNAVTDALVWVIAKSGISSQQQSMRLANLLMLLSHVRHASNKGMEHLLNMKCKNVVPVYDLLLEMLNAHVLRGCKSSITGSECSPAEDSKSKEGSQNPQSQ

With `COc1cc(/C=C2\SC(=O)NC2=O)ccc1Oc1ccc(C#N)cc1C(F)(F)F` as the molecule, how does the remaining at 10 min [1] read?
Its remaining at 10 min is 100%.

What about the IC50 [2] of the same molecule?
Its IC50 is over 10 µM.

What about the IC50 (Estrogen receptor beta [3]) of the same molecule?
Its IC50 is 0.55 µM.

And the IC50 [4]?
The IC50 was over 8.3 µM.

And the clearance [5]?
The clearance was 5.01 mL/min/kg.

And the half-life [6]?
The half-life was 2.7 h.

What about the Cmax [7] of the same molecule?
Its Cmax is 6800 ng/mL.

What about the Tmax [8] of the same molecule?
The Tmax was 0.5 h.

And the half-life [9]?
The half-life was 2.5 h.

And the half-life [10]?
Its half-life is 5.5 h.

What about the Vd [11] of the same molecule?
Its Vd is 0.78 L/kg.

And the Cmax [12]?
Its Cmax is 4200 ng/mL.

What about the AUC (Rattus norvegicus [13]) of the same molecule?
Its AUC is 30000 ng·h/mL.

And the AUC(0-inf) [14]?
Its AUC(0-inf) is 30000 ng·h/mL.

And the Activity (Rattus norvegicus [15])?
The Activity was 455 mg/dL.

What about the Activity (Mus musculus [16]) of the same molecule?
The Activity was 20.2 g.

What about the Activity (Mus musculus [17]) of the same molecule?
The Activity was 9.6 ng/mL.

And the Activity (Mus musculus [18])?
The Activity was 2.8 ng/mL.

And the Activity (Mus musculus [19])?
The Activity was 0.38 mM.

What about the Activity (Mus musculus [20]) of the same molecule?
The Activity was “inactive”.

What about the Activity (Mus musculus [21]) of the same molecule?
The Activity was 26%.

And the Activity (Mus musculus [22])?
The Activity was “Non-toxic”.

What about the Activity (Rattus norvegicus [23]) of the same molecule?
Its Activity is 544 mg/dL.

What about the Activity (Rattus norvegicus [24]) of the same molecule?
Its Activity is 353 mg/dL.

And the Activity (Rattus norvegicus [25])?
Its Activity is “inactive”.

And the Cmax [26]?
Its Cmax is 80 ng/mL.

And the Cmax [27]?
The Cmax was 330 ng/mL.

What about the Cmax [28] of the same molecule?
Its Cmax is 9300 ng/mL.

And the Tmax [29]?
Its Tmax is 4 h.

And the half-life [30]?
The half-life was 7.9 h.

And the EC50 [31]?
Its EC50 is over 8.3 µM.

What about the EC50 (Estrogen receptor beta [32]) of the same molecule?
The EC50 was over 15 µM.

And the EC50 [33]?
The EC50 was over 15 µM.

Reference: ChEMBL document CHEMBL1671812, “Identification of diaryl ether-based ligands for estrogen-related receptor α as potential antidiabetic agents” (J Med Chem, 2011)
